This is an account of results in patent US6706740B2, “Fungicidal heterocyclic aromatic amides and their compositions, methods of use and preparation” (Dow AgroSciences LLC, priority 1999, dated 2004).

Molecules are shown by their SMILES. Where two headings read alike, the source gives them in different places. Where only a bound is given, the exact number is not on record here.

The subject of one assay is Erysiphe graminis—ERYSGT. Nature of the assay: Powdery Mildew of Wheat, in vivo whole plant, 24 Hour Protectant.
The subject of assay [1] is Mycosphaerella graminicola (Septoria tritici—SEPTTR). Nature of the assay: In vitro fungal growth inhibition, Mycosphaerella graminicola (SEPTTR). It is filed as cell-based. To be noted: Zymoseptoria tritici; 25 ppm in growth medium; read-out: SEPTTR in vitro Growth Inhibition.
The subject of assay [2] is Phytophthora infestans—PHYTIN. Briefly: whole plant or invertebrate. To be noted: Phytophthora, in Solanum lycopersicum, 24 h, read-out: PHYTIN in vivo 1 Day Protectant. It is filed as in vivo.
Another assay has as its system Septoria tritici—SEPTTR. Briefly: Leaf Blotch of Wheat, in vivo whole plant, 24 Hour Protectant.
Assay [3] concerns Rhizoctonia solani (RHIZSO). Briefly: microbe, parasite or virus in culture. To be noted: Rhizoctonia solani, read-out: RHIZSO in vitro Growth Inhibition. Format: cell-based.
For a further assay, the system named is Ustilago maydis (USTIMA). Briefly: microbe, parasite or virus in culture. To be noted: Mycosarcoma maydis, read-out: USTIMA in vitro Growth Inhibition. It is filed as cell-based.
Assay [4] has as its system Phytophthora infestans (PHYTIN). Nature of the assay: microbe, parasite or virus in culture. It is filed as cell-based. To be noted: Phytophthora infestans, read-out: PHYTIN in vitro Growth Inhibition.
Assay [5] has as its system Stagonospora nodorum (Leptosphaeria nodorum—LEPTNO). Briefly: In vitro fungal growth inhibition, Stagonospora nodorum (LEPTNO). The note with it: Leptosphaeria; 25 ppm in growth medium; read-out: LEPTNO in vitro Growth Inhibition. Format: cell-based.
The test system of assay [6] is Leptosphaeria nodorum—LEPTNO. Briefly: Glume Blotch of Wheat, in vivo whole plant, 24 Hour Protectant. The note with it: 100 ppm spray, wheat, 24 hour protectant, control of fungal infection vs untreated plants; for pest or weed control at 100 ppm: Leptosphaeria, read-out: LEPTNO in vivo 1 Day Protectant.
Assay [7] has as its system Puccinia recondita—PUCCRT. Nature of the assay: Brown Rust of Wheat, in vivo whole plant, 24 Hour Protectant.
Assay [8] deals with Magnaporthe grisea (Pyricularia oryzae—PYRIOR). Nature of the assay: microbe, parasite or virus in culture. Format: cell-based. To be noted: Pyricularia oryzae, read-out: PYRIOR in vitro Growth Inhibition.
The mark [9] stands for this setting: Erysiphe; 100 ppm spray, 24 hour protectant, wheat; control of fungal infection vs untreated plants; read-out: ERYSGT in vivo 1 Day Protectant.
Where [10] appears, read: Zymoseptoria tritici, 24 h, 100 ppm spray, 24 hour protectant, wheat; control of fungal infection vs untreated plants; read-out: SEPTTR in vivo 1 Day Protectant.
The mark [11] stands for this setting: Puccinia; 100 ppm spray, 24 hour protectant, wheat; control of fungal infection vs untreated plants; read-out: PUCCRT in vivo 1 Day Protectant.

As for `COC(=O)C(Cc1ccc(OCc2ccccc2)cc1)NC(=O)c1nccc(OC)c1O` (single isomer, unassigned) [Compound 338], the pest or weed control at 100 ppm in the assay on Erysiphe graminis—ERYSGT (Erysiphe; 100 ppm spray, wheat, 24 hour protectant; control of fungal infection vs untreated plants; read-out: ERYSGT in vivo 1 Day Protectant) is under 25%; in [2] it was under 25%; with Septoria tritici—SEPTTR (Zymoseptoria tritici, 24 h, 100 ppm spray, wheat, 24 hour protectant; control of fungal infection vs untreated plants; read-out: SEPTTR in vivo 1 Day Protectant), 25 to 74%. Moreover, the inhibition (as a rule, the change of the read-out against control, counted positive when it falls) at 25 ppm in [1] was under 80%; in assay [3], under 80%; with Ustilago maydis (USTIMA), over 80%; in assay [4] it was under 80%; in assay [5], under 80%; in assay [8] it was under 80%. For the same compound, the “LEPTNO in vivo 1 Day Protectant” value in assay [6] is recorded as “+ +”. In addition, the “PUCCRT in vivo 1 Day Protectant” value in [7] (100 ppm spray, wheat, 24 hour protectant; control of fungal infection vs untreated plants) is given as “+ +”.

On to `CCCCCCCCCNC(=O)c1ncccc1O` [Compound 201], for which the pest or weed control at 100 ppm (in the assay on Erysiphe graminis—ERYSGT (setting [9]); in assay [2]; with Septoria tritici—SEPTTR (setting [10]); in assay [6]; in assay [7] (setting [11])) was under 25% throughout. The inhibition at 25 ppm in [1] was under 80%; in assay [3], under 80%; with Ustilago maydis (USTIMA), under 80%; in assay [4], under 80%; in assay [5], under 80%; in assay [8] it was over 80%.

In the case of `O=C(NCC1CCCCC1)c1ncccc1O` [Compound 202], the pest or weed control at 100 ppm (with Erysiphe graminis—ERYSGT (setting [9]); in [2]; with Septoria tritici—SEPTTR (setting [10]); in [6]; in assay [7] (setting [11])) was under 25% in each case. Further, the inhibition at 25 ppm was under 80% in [1]; under 80% in assay [3]; under 80% in the assay with Ustilago maydis (USTIMA); over 80% in assay [4]; under 80% in assay [5]; over 80% in [8].

As to `CC1(C)CC(NC(=O)c2ncccc2O)CC(C)(C2CC2)C1` (stereo not shown) [Compound 204], the pest or weed control at 100 ppm in the assay with Erysiphe graminis—ERYSGT (setting [9]) was under 25%; in [2] it was under 25%; in the assay on Septoria tritici—SEPTTR (setting [10]) it was 25 to 74%; in [6], under 25%; in assay [7] (setting [11]) it was under 25%. Moreover, the inhibition at 25 ppm (in assay [1]; in assay [3]; in the assay with Ustilago maydis (USTIMA); in [4]; in assay [5]; in assay [8]) was under 80% throughout.

For the compound `CC1(C)CC(NC(=O)c2ncccc2O)CC(C)(C)C1=O` [Compound 205], the pest or weed control at 100 ppm (in the assay on Erysiphe graminis—ERYSGT (setting [9]); in assay [2]; in the assay with Septoria tritici—SEPTTR (setting [10]); in assay [6]; in [7] (setting [11])) was under 25% in each case. Further, the inhibition at 25 ppm (in assay [1]; in [3]; in the assay with Ustilago maydis (USTIMA); in assay [4]; in assay [5]; in assay [8]) was under 80% in each case.

On to `O=C(N[C@H]1CC2CC1[C@@H]1CCC[C@H]21)c1ncccc1O` (stereo partly shown) [Compound 206], for which the pest or weed control at 100 ppm (in the assay with Erysiphe graminis—ERYSGT (setting [9]); in assay [2]; with Septoria tritici—SEPTTR (setting [10]); in assay [6]; in assay [7] (setting [11])) was under 25% in each case. Also, the inhibition at 25 ppm was over 80% in [1]; over 80% in assay [3]; under 80% in the assay with Ustilago maydis (USTIMA); under 80% in assay [4]; over 80% in assay [5]; over 80% in [8].

On to `C[C@H]1C2CC([C@H]3CCC[C@@H]23)[C@@H]1NC(=O)c1ncccc1O` (stereo partly shown) [Compound 207], for which the pest or weed control at 100 ppm (in the assay with Erysiphe graminis—ERYSGT (setting [9]); in assay [2]; in the assay with Septoria tritici—SEPTTR (setting [10]); in [6]; in assay [7] (setting [11])) was under 25% each time. The inhibition at 25 ppm was over 80% in assay [1]; under 80% in assay [3]; under 80% with Ustilago maydis (USTIMA); under 80% in assay [4]; over 80% in assay [5]; over 80% in assay [8].

With `O=C(Nc1ccc(Cl)cc1)c1ncccc1O` [Compound 213], the pest or weed control at 100 ppm in the assay with Erysiphe graminis—ERYSGT (setting [9]) was under 25%; in assay [2] it was 25 to 74%; with Septoria tritici—SEPTTR (setting [10]) it was under 25%; in assay [6], under 25%. For the same compound, the inhibition at 25 ppm is over 80% in assay [1]; under 80% in assay [3]; under 80% in the assay on Ustilago maydis (USTIMA); over 80% in assay [4]; under 80% in [5]; under 80% in [8]. Further, the “PUCCRT in vivo 1 Day Protectant” value in assay [7] (100 ppm spray, 24 hour protectant, wheat; control of fungal infection vs untreated plants) was “+ +”.

On to `O=C(Nc1cccc(C(F)(F)F)c1)c1ncccc1O` [Compound 214], for which the pest or weed control at 100 ppm (with Erysiphe graminis—ERYSGT (setting [9]); in assay [2]; with Septoria tritici—SEPTTR (setting [10]); in assay [6]; in [7] (setting [11])) was under 25% in each case. Moreover, the inhibition at 25 ppm (in [1]; in assay [3]; in the assay with Ustilago maydis (USTIMA); in assay [4]; in assay [5]; in assay [8]) was under 80% each time.

Take `Cc1cc(C)cc(NC(=O)c2ncccc2O)c1` [Compound 215]: the pest or weed control at 100 ppm (in the assay with Erysiphe graminis—ERYSGT (setting [9]); in assay [2]; in the assay with Septoria tritici—SEPTTR (setting [10]); in assay [6]; in assay [7] (setting [11])) was under 25% each time. The inhibition at 25 ppm was over 80% in [1]; under 80% in assay [3]; under 80% in the assay on Ustilago maydis (USTIMA); under 80% in [4]; under 80% in assay [5]; under 80% in assay [8].

As for `Cc1cccc(CNC(=O)c2ncccc2O)c1` [Compound 222], the pest or weed control at 100 ppm in the assay with Erysiphe graminis—ERYSGT (setting [9]) was under 25%; in assay [2], under 25%; with Septoria tritici—SEPTTR (setting [10]), under 25%; in assay [6] it was under 25%; in assay [7] (setting [11]), 25 to 74%. Moreover, the inhibition at 25 ppm (in [1]; in [3]; in the assay on Ustilago maydis (USTIMA); in assay [4]; in [5]; in assay [8]) was under 80% each time.

For `CC(NC(=O)c1ncccc1O)c1ccc(Cl)cc1` (stereo not shown) [Compound 230], the pest or weed control at 100 ppm is under 25% with Erysiphe graminis—ERYSGT (setting [9]); under 25% in [2]; 25 to 74% in the assay on Septoria tritici—SEPTTR (setting [10]); 25 to 74% in [6]; under 25% in [7] (setting [11]). Further, the inhibition at 25 ppm was over 80% in [1]; under 80% in assay [3]; under 80% in the assay with Ustilago maydis (USTIMA); over 80% in assay [4]; over 80% in [5]; over 80% in assay [8].

Consider `C[C@@H](NC(=O)c1ncccc1O)c1cccc2ccccc12` [Compound 231], for which the pest or weed control at 100 ppm (in the assay with Erysiphe graminis—ERYSGT (setting [9]); in [2]; with Septoria tritici—SEPTTR (setting [10]); in assay [6]; in assay [7] (setting [11])) was under 25% in each case. Besides, the inhibition at 25 ppm in assay [1] is under 80%; in assay [3] it was under 80%; in the assay on Ustilago maydis (USTIMA) it was under 80%; in assay [4] it was under 80%; in [5], under 80%; in assay [8], over 80%.

For the compound `C[C@H](NC(=O)c1ncccc1O)c1cccc2ccccc12` [Compound 232], the pest or weed control at 100 ppm with Erysiphe graminis—ERYSGT (setting [9]) was 25 to 74%; in [2] it was under 25%; in the assay on Septoria tritici—SEPTTR (setting [10]), under 25%; in [6] it was under 25%; in [7] (setting [11]), under 25%. For the same compound, the inhibition at 25 ppm is over 80% in assay [1]; under 80% in assay [3]; under 80% in the assay with Ustilago maydis (USTIMA); under 80% in [4]; under 80% in assay [5]; over 80% in assay [8].
